The supplement of paper PMC4862054

How the values were obtained:
Conditions in all cases: 72 h
MDA-MB-231 = test system: MDA-MB-231
Method in brief: (§1)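 To measure viability, fluorescence at 560/590 nm was read after 2.5 µl CellTiter-Blue had been added for 2 h at 37 °C. Cells from breast cancer lines had been seeded in 20 µl suspension onto 384-well plates pre-loaded with compound dissolved in 5 µl medium and kept for 72 h. EC50 comes from a fitted percent-inhibition dose-response curve censored at the highest concentration, after per-plate normalisation to vehicle and a positive kill control, Z'-factor checks, and removal of rows with zero drug sensitivity score.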

Hs578T = test system: Hs578T
Method in brief: as §1

MDA-MB-468 = test system: MDA-MB-468
Method in brief: as §1

MFM-223 = test system: MFM-223
Method in brief: as §1

SK-BR-3 = test system: SK-BR-3
Method in brief: as §1

MDA-MB-436 = test system: MDA-MB-436
Method in brief: as §1

HCC1143 = test system: HCC1143
Method in brief: as §1

HCC1599 = test system: HCC1599
Method in brief: as §1

BT-549 = test system: BT-549
Method in brief: as §1

HCC1937 = test system: HCC1937
Method in brief: as §1

CAL-120 = test system: CAL-120
Method in brief: as §1

EC50, CellTiter-Blue viability (MDA-MB-231)	EC50, CellTiter-Blue viability (MDA-MB-468)	EC50, CellTiter-Blue viability (SK-BR-3)	EC50, CellTiter-Blue viability (MDA-MB-436)	EC50, CellTiter-Blue viability (HCC1143)	EC50, CellTiter-Blue viability (HCC1599)	EC50, CellTiter-Blue viability (BT-549)	EC50, CellTiter-Blue viability (HCC1937)	SMILES	EC50, CellTiter-Blue viability (Hs578T)	EC50, CellTiter-Blue viability (MFM-223)	EC50, CellTiter-Blue viability (CAL-120)
3.89 nM	2.95 nM	2.77 nM	34.9 nM	6.46 nM	79.5 nM	7.83 nM	2.93 nM	CC(C)C[C@H](NC(=O)[C@H](Cc1ccccc1)NC(=O)c1cnccn1)B(O)O [Bortezomib]	22.2 nM	6.67 nM	5.42 nM
835 nM	200 nM	101 nM	969 nM	361 nM	295 nM	1620 nM	770 nM	C#Cc1cccc(Nc2ncnc3cc(OC)c(OCCCCCCC(=O)NO)cc23)c1 [CUDC-101]	394 nM	145 nM	294 nM
73.2 nM	105 nM	38.1 nM	99.1 nM	171 nM	678 nM	192 nM	22.4 nM	COC1=CC(c2cc3ccccc3[nH]2)=N/C1=C\c1[nH]c(C)cc1C [Obatoclax]	162 nM	1010 nM	25.9 nM
